Measurements from patent US20220030896A2, “CHOLINE ESTER-CONTAINING COMPOSITION FOR ORAL INGESTION” (Shinshu University, priority 2016, published 2022).

Key:
[1] = tested on: spontaneously hypertensive rats (SHR); experiment: Repeated oral administration test of AcCh in SHR that did not fast; format: in vivo, rat; settings: in SHRs, weight assumed 370 g
Source text: (§1) This AcCh dose at which a blood pressure-lowering effect occurred in SHRs in normal condition upon oral ingestion was extrapolated to humans using Kleiber's law (Non-Patent Document 22). According to Kleiber's law, the mammalian metabolic rate is assumed to be proportional to the ¾ power of body weight, assuming the SHR weight to be 370 g and human weight to be 60 kg, the effective dose for humans is estimated to be 45.4 times the effective dose for SHRs.
(§2) When this AcCh dose was extrapolated to humans using Kleiber's law (Non-Patent Document 22), the upper limit of the daily human effective dose was 3.36×10^−6 mol (491 μg). Therefore, the daily effective dose for humans with high blood pressure having genetic characteristics such as SHRs was estimated to be in the range of 5 to 500 μg.

[2] = Change over time of AcCh amount in aqueous pH solutions (standard sample); format: physicochemical; settings: pH 4.1 to pH 3.1, after 12 days
Experimental: A method for stabilizing choline esters in eggplants was examined. […] Therefore, firstly, the concentration change over time of an AcCh standard sample was examined under neutral and acidic conditions. The neutral solution (pH 7.0) was a phosphate buffer solution, and the acidic solutions (pH 4.1, pH 3.6, pH 3.1, pH 2.6) were prepared by adding acetic acid; the pH solutions with an AcCh concentration of 1.9 mg/mL were allowed to remain at ambient temperature (23 to 25° C.) for 0, 3, 6, 12 days, and then the AcCh content was quantified.

[3] = tested on: spontaneously hypertensive rats (SHR); experiment: Single oral administration test in spontaneously hypertensive rats (tail cuff blood pressure, heart rate); format: in vivo, rat; settings: SHRs after 12 hours of fasting
Experimental: The lyophilized eggplant powder was prepared by washing a 'Senshu' water eggplant from […], Osaka-fu with water, by sterilizing the eggplant with hypochlorous acid, and by finely grinding the edible part after lyophilisation. […] In order to compare the blood pressure-lowering effect, an administration test of an AcCh standard sample of 1.00×10^-9 mol/kg was performed in the same manner and the systolic blood pressure was measured. To a control group only water was administered under the same conditions. 0, 3, 6, 9, and 24 hours after the oral administration, systolic blood pressure, diastolic blood pressure and heart rate were measured by the tail cuff method using the non-invasive blood pressure measuring instrument Softron BP-98A (Softron Co., Ltd., Tokyo).

[4] = tested on: humans; experiment: Extrapolation of effective AcCh dose from SHR to humans by Kleiber's law; parameters: species or system human
Source text: as §1, §2

[5] = tested on: spontaneously hypertensive rats (SHR); settings: purified compound, SHRs, single oral administration; cited from earlier work
[6] = tested on: thoracic aorta ring specimens of SHR; experiment: Vascular isometric tension measurement test (phenylephrine-constricted thoracic aorta rings); parameters: species or system rat; settings: standard sample
Experimental: The ground eggplant samples used for the experiment were prepared as follows. […] 14-week-old male SHRs (body weight 320 to 346 g) were put to death by laparotomy and exsanguination under ether anaesthesia, and the thoracic aorta was quickly removed. The isolated aorta was immersed in physiological saline and the blood was thoroughly rinsed off, and then the connective tissue and adipose tissue attached to the blood vessel were removed in a Krebs-Henseleit solution to prepare a ring specimen with a width of about 2 to 3 mm. The resulting ring specimens were attached inside an organ bus of an isometric tension test device (UFER UC-05[…]., Kyoto) filled with Krebs-Henseleit solution of 37° C. (119 mM NaCl/4.7 mM KCl/1.1 mM KH2PO4/1.2 mM MgSO4/25 mM NaHCO3, pH 7.4) in which a mixed gas of 95% O2-5% CO2 was aerated, then a static tension of 1.0 g was applied and the ring specimens were stabilized for 60 minutes. […] The change in tension was measured and recorded by using a transducer (UFER UM-20, Iwashiya Kishimoto Ika Sangyo Co., Ltd.), the dilation rate (%) was calculated by equation (1) hereinafter, and the mean value±standard error (Mean±S. E.) was determined by repeating the test results three times. […]

With CC(=O)OCC[N+](C)(C)C [AcCh, acetylcholine] the “effective daily intake of AcCh causing a blood pressure lowering effect” value [1] was 3.7e-09 mol, the AcCh remaining [2] was at least 97% and the “effective daily dose of AcCh” value [3] was 1e-09 mol/kg. The “lower limit of the daily effective dose for humans” value [4] was 3.36e-08 mol and the “upper limit of the daily human effective dose” value [4] was 3.36e-06 mol.
For CCCC(=O)OCC[N+](C)(C)C [BuCh, butyrylcholine], the blood pressure-lowering effect [5] is given as “blood pressure-lowering effect is shown”.
In the case of O=C(/C=C/c1ccc(O)c(O)c1)O[C@@H]1C[C@](O)(C(=O)O)C[C@@H](O)[C@H]1O [Chlorogenic acid], the “effect on blood vessels” value ([6]; 11 μg/mL) is reported as “no effect on blood vessels was observed”.
In the case of CCC(=O)OCC[N+](C)(C)C [PrCh, propionylcholine], the blood pressure-lowering effect [5] is listed as “blood pressure-lowering effect is shown”.
For NCCCC(=O)O [γ-aminobutyric acid (GABA), γ-aminobutyric acid], the “effect on blood vessels” value ([6]; 4.8 μg/mL) was “no effect on blood vessels was observed”.
